Here are results for two molecules from paper PMC4980083 (JCI insight, 2016).

Assay [1] deals with LNCaP95 cells. The assay can be described thus: Western blot of cell cycle G1/S-related proteins in LNCaP95 cells. It is filed as cell-based, human. The following applies: enzalutamide 5 μM, EPI-002 25 μM, I-EPI-002 5 μM; 48 hours.
Assay [2] relates to LNCaP95 cells. The assay can be described thus: LNCaP95 proliferation, BrdU incorporation. It is filed as cell-based, human. The conditions noted are these: I-EPI-002 2 μM, EPI-002 25 μM, enzalutamide 5 μM; 2 days.
The test system of assay [3] is LNCaP95 cells. The assay can be described thus: Cell cycle analysis of LNCaP95 cells. It is filed as cell-based, human. The conditions noted are these: I-EPI-002 5 μM, EPI-002 25 μM, 48 hours.
Another assay deals with T1, recombinant AR AF-1 (Homo sapiens, UniProt P10275).
T1 sequence (P10275 142-485): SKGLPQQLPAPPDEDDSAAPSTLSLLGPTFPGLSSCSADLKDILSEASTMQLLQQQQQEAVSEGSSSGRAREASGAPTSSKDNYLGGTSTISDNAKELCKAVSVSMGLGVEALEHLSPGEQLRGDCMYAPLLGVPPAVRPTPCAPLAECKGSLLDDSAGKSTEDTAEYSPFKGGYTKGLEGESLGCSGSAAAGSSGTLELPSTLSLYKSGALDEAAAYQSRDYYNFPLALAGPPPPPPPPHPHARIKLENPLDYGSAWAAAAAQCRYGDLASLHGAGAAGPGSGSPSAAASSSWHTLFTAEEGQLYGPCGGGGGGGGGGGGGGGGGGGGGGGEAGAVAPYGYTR
The assay can be described thus: Cell-free binding to recombinant AR AF-1, competition with cold EPI-002. The following applies: preincubation with 60 μM EPI-002 for 6 hours.

A further assay concerns the target T2, recombinant AR LBD (Homo sapiens, UniProt P10275).
T2 sequence (P10275 669-900 limits assumed): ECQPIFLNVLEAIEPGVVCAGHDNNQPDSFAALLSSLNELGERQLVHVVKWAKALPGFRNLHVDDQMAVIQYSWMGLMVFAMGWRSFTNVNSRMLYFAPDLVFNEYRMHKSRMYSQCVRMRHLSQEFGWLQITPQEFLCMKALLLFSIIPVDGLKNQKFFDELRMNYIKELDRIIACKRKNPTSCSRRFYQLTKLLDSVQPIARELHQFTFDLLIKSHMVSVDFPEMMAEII
The experiment in a line: Fluorescence polarization competition binding, AR LBD. The following applies: 1 nM fluorescently labeled ligand, AR LBD 25 nM.

The target in assay [4] is T3, endogenous full-length AR (Homo sapiens, UniProt P10275, T878A).
T3 sequence (P10275 1-920 T878A): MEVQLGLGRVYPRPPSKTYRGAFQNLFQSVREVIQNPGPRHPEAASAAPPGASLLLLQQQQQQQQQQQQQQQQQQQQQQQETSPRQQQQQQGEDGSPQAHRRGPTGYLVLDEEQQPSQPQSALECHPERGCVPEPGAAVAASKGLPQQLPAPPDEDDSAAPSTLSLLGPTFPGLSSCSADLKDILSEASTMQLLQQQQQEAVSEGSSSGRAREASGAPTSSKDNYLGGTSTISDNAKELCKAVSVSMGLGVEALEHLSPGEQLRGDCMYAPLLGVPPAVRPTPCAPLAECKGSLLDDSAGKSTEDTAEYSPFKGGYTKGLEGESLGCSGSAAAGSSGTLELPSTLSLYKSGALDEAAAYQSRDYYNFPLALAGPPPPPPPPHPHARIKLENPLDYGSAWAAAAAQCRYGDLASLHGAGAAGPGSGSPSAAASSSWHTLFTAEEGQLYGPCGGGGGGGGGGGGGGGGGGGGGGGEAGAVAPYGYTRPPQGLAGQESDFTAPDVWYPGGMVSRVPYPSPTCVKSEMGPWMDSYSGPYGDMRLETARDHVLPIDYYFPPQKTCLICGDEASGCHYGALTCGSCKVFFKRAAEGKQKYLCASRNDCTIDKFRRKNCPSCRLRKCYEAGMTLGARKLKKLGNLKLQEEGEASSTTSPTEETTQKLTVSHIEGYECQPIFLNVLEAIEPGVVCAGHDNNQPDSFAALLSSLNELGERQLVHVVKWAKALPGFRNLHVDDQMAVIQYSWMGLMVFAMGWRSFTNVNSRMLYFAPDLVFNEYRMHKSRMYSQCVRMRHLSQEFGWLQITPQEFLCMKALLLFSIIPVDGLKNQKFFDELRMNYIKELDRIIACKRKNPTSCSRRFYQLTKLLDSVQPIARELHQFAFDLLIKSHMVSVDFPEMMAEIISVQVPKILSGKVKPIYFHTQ
The assay can be described thus: AR transcriptional activity, PSA.

On to `CNC(=O)c1ccc(N2C(=S)N(c3ccc(C#N)c(C(F)(F)F)c3)C(=O)C2(C)C)cc1F` [enzalutamide], for which, in the assay with LNCaP95 cells [1], the “expression of UBE2C, cyclinD3 and cyclin-dependent kinases (CDKs)” value is given as “had no effect”; the “protein expression of the CDK inhibitor p27kip1” value is listed as “had no effect”.
Regarding `CC(C)(c1ccc(OC[C@H](O)CO)cc1)c1ccc(OC[C@H](O)CCl)cc1` [EPI-002, reference compound], in the assay on LNCaP95 cells [2], the “effect on proliferation of LNCaP95 cells” value is “decreased proliferation”. Besides, the “decrease of S phase cells” value with LNCaP95 cells [3] is on record as at least 2 fold. Further, the “displacement of ^123I-EPI-002 binding to AF-1” value at recombinant AR AF-1 was “displaced binding”. On recombinant AR LBD, the “competition with fluoromone for binding to AR LBD” value was “did not prevent ligand-binding”. For the same molecule, the “inhibition of AR transcriptional activity” value in assay [4] (25 μM, R1881 1 nM) was around 75%. Further, the “inhibition of AR transcriptional activity with increasing concentrations of androgen” value in assay [4] (increasing R1881, enzalutamide 5 μM, I-EPI-002 5 μM, EPI-002 25 μM) is given as “maintained effective inhibition”.
